Values of other authors, collected in patent publication US6365621B1, “Remedies or preventives for intractable epilepsy” (Pharmaceutical Co., Ltd., priority 1998, dated 2002).

Tested on: kainate-induced amygdala seizures
Conditions: high concentration; cited from earlier work

In the case of `NS(=O)(=O)Cc1noc2ccccc12` [zonisamide], the “Suppression of status epilepticus of kainate-induced amygdala seizure in acute phase” value is given as “proven suppression effect”.
